In patent publication US8129355B2, “Ketone ligands for modulating the expression of exogenous genes via an ecdysone receptor complex” (priority 2002, dated 2012):
Where “and” joins values, the source holds several entries; their conditions need not be identical. Equal entries are not always repeated.

Key:
[1] = target: T1, GAL4 DBD (1-147)-CfEcR(DEF)/VP16AD-βRXREF-LmUSPEF (Choristoneura fumiferana, UniProt O77240); test: 27-63 assay: luciferase reporter gene expression in stable CHO cell clone 27-63; conditions: for CC50: read-out: 27-63 LC50, average, dose response; for CC50 / EC50: three-parameter logistic model; for EC50: 27-63 EC50 (μM), CHO clone 27-63, luciferase reporter 48 h after treatment, dose response 8 concentrations 33 μM to 0.01 μM
T1 sequence (O77240 191-513): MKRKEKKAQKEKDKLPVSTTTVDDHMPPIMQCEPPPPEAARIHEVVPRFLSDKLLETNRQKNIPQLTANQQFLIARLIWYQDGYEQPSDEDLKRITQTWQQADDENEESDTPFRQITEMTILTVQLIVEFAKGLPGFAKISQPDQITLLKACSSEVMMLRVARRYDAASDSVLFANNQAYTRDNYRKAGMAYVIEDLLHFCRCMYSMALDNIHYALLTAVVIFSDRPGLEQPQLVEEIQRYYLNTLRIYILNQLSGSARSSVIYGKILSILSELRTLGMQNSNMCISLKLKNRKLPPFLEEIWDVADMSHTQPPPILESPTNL
T1 sequence (P28702 296-455 partner limits assumed): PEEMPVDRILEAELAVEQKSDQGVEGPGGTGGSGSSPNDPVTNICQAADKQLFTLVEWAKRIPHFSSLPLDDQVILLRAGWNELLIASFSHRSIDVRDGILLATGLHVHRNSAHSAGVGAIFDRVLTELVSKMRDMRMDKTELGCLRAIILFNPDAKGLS
From the text: GAL4 DBD (1-147)-CfEcR(DEF)/VP16AD-βRXREF-LmUSPEF: The wild-type D, E, and F domains from spruce budworm Choristoneura fumiferana EcR (“CfEcR-DEF”; SEQ ID NO: 1) were fused to a GAL4 DNA binding domain (“Gal4 DBD1-147”; nucleotides 31 to 471 of SEQ ID NO: 2) and placed under the control of a phosphoglycerate kinase promoter (“PGK”; SEQ ID NO: 3). Helices 1 through 8 of the EF domains from Homo sapiens RXRβ and helices 9 through 12 of the EF domains of Locusta migratoria Ultraspiracle Protein (“HsRXRβ-EF-LmUSP-EF”; SEQ ID NO: 4) were fused to the transactivation domain from VP16 (“VP16AD”; SEQ ID NO: 5) and placed under the control of an elongation factor-1α promoter (“EF-1α”; SEQ ID NO: 6). Five consensus GAL4 response element binding sites (“5XGAL4RE”; comprising 5 copies of a GAL4RE comprising SEQ ID NO: 7) were fused to a synthetic TATA minimal promoter (SEQ ID NO: 8) and placed upstream of the luciferase reporter gene (SEQ ID NO: 9).
CHO cells were transiently transfected with transcription cassettes for GAL4 DBD (1-147) CfEcR(DEF) and for VP16AD βRXREF-LmUSPEF controlled by ubiquitously active cellular promoters (PGK and EF-1α, respectively) on a single plasmid. Stably transfected cells were selected by Zeocin resistance. Individually isolated CHO cell clones were transiently transfected with a GAL4 RE-luciferase reporter (pFR Luc). 27-63 clone was selected using Hygromycin.
(§1) Cells were trypsinized and diluted to a concentration of 2.5×10^4 cells mL. 100 μL of cell suspension was placed in each well of a 96 well plate and incubated at 37° C. under 5% CO2 for 24 h. Ligand stock solutions were prepared in DMSO and diluted 300 fold for all treatments. Dose response testing consisted of 8 concentrations ranging from 33 μM to 0.01 μM.
(§2) Luciferase reporter gene expression was measured 48 h after cell treatment using Bright-Glo™ Luciferase Assay System from Promega (E2650). Luminescence was detected at room temperature using a Dynex MLX microtiter plate luminometer.
(§3) Fold inductions were calculated from single dose testing by dividing relative light units (RLU) in ligand treated cells by RLU in DMSO treated cells. BC50s were calculated from dose response data using a three-parameter logistic model.

[2] = target: T2, Bombyx mori EcR (VP16 fusion, switch construct CVBE) with 6XEcRE LacZ reporter (Bombyx mori, UniProt P49881); test: Z3 assay: β-galactosidase (LacZ) reporter gene fold induction in stably transformed human 293 kidney cells (clone Z3); assay type: cell-based; conditions: for CC50: average, dose response, three-parameter logistic model, read-out: Z3 LC50; for Z3 Rel Max FI: maximum fold induction at any concentration relative to that of GS-E ligand
T2 construct: expressed in transfected cells; host or cells: Human 293 kidney (HEK-293) cells, retrovirally infected, clone Z3
T2 sequence (P49881 86-606 limits assumed): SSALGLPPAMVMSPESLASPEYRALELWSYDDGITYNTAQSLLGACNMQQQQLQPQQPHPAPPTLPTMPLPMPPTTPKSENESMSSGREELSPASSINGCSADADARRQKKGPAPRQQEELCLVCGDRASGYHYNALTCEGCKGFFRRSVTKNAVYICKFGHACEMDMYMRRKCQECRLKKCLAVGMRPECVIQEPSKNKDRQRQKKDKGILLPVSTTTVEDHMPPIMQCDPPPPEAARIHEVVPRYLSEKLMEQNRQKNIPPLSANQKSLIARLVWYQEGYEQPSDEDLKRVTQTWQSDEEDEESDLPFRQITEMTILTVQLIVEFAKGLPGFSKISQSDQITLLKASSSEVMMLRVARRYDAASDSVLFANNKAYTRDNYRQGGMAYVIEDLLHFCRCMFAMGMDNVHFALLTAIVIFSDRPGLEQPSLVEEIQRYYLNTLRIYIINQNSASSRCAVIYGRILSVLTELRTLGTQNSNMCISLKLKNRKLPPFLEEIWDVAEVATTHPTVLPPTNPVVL
T2 sequence (P19793 1-462 partner): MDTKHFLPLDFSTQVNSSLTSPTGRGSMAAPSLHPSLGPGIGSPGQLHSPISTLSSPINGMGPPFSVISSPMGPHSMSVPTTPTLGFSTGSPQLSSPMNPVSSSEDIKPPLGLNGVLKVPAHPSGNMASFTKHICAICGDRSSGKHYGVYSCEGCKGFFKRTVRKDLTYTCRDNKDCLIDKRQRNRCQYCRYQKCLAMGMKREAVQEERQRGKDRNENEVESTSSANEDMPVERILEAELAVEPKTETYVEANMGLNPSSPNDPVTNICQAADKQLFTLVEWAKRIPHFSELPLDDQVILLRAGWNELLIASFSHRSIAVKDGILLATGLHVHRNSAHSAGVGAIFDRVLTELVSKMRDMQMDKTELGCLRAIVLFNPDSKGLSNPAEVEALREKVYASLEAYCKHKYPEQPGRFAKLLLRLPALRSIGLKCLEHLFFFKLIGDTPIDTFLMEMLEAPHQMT
From the text: Dr. F. Gage provided a population of stably transformed cells containing CVBE and 6XEcRE as described in Suhr, S. T., Gil, E. B., Senut M. C., Gage, F. H. (1998) Proc. Natl. Acad. Sci. USA 95, 7999-804. Human 293 kidney cells, also referred to as HEK-293 cells, were sequentially infected with retroviral vectors encoding first the switch construct CVBE, and subsequently the reporter construct 6XEcRE Lac Z. The switch construct contained the coding sequence for amino acids 26-546 from Bombyx mori EcR (BE) (Iatrou) inserted in frame and downstream of the VP16 transactivation domain (VBE). A synthetic ATG start codon was placed under the control of cytomegalovirus (CVBE) immediate early promoter and flanked by long terminal repeats (LTR). The reporter construct contained six copies of the ecdysone response element (EcRE) binding site placed upstream of LacZ and flanked on both sides with LTR sequences (6XEcRE).
Dilution cloning was used to isolate individual clones. Clones were selected using 450 ug/mL G418 and 100 ng/mL puromycin. Individual clones were evaluated based on their response in the presence and absence of test ligands. Clone Z3 was selected for screening and SAR purposes.
Human 293 kidney cells stably transformed with CVBE and 6XEcRE lack were maintained in Minimum Essential Medium (Mediates, 10-010-CV) containing 10% FBS (Life Technologies, 26140-087), […] G418 (Mediates, 30-234-CR), and […] (Sigma, P-7255), at 37° C. in an atmosphere containing 5% CO2 and were subculture when they reached 75% confluence.
Z3 cells were seeded into 96-well tissue culture plates at a concentration of 2.5×10^3 cells per well and incubated at 37° C. in 5% CO2 for twenty-four hours. Stock solutions of ligands were prepared in DMSO. Ligand stock solutions were diluted 100 fold in media and 50 μL of this diluted ligand solution (33 μM) was added to cells. The final concentration of DMSO was maintained at […] in both controls and treatments.
Reporter gene expression was evaluated 48 hours after treatment of cells, β-galactosidase activity was measured using Gal Screen™ bioluminescent reporter gene assay system from Tropix (GSY1000).
Flanking both constructs are long terminal repeats, G418 and puromycin are selectable markers, CMV is the cytomegalovirus promoter, VBE is coding sequence for amino acids 26-546 from Bombyx mori EcR inserted downstream of the VP16 transactivation domain, 6×EcRE is six copies of the ecdysone response element, lacZ encodes for the reporter enzyme β-galactosidase. Suhr, S. T., Gil, E. B., Senut M. C., Gage, F. H. (1998) Proc. Natl. Acad. Sci. USA 95, 7999-804. Swevers, L., Drevet, J. R., Lunke, M. D., Iatrou, K. (1995) Insect Biochem. Mol. Biol. 25, 857-866.

[3] = target: T3, GAL4 DBD-CfEcR(DEF)/VP16AD-MmRXRE (Choristoneura fumiferana, UniProt O77240); test: cell-based
T3 sequence (O77240 1-513): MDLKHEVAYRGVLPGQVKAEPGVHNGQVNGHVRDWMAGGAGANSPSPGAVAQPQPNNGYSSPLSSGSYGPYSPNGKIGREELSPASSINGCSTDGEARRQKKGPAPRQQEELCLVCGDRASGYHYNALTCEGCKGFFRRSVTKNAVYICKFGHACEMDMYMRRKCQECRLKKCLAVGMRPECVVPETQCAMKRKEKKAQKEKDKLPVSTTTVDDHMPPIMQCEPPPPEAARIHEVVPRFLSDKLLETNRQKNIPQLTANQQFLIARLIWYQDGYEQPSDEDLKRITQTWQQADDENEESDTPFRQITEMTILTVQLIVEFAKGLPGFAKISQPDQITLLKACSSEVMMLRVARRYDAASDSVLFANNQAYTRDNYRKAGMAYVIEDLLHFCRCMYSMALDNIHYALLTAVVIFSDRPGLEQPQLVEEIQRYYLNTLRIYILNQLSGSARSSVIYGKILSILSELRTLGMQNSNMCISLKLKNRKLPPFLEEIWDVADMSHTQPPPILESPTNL
From the text: GAL4 DBD-CfEcR(DEF)/VP16AD-MmRXRE: The wild-type D, E, and F domains from spruce budworm Choristoneura fumiferana EcR (“CfEcR-DEF”; SEQ ID NO: 1) were fused to a GAL4 DNA binding domain (“Gal4 DBD1-147”; nucleotides 31 to 471 of SEQ ID NO: 2) and placed under the control of the SV40e promoter of pM vector (PT3119-5, Clontech, Palo Alto, Calif.). The D and E domains from Mus Musculus RXR (“MmRXR-DE”; SEQ ID NO: 10) were fused to the transactivation domain from VP16 (“VP16AD”; SEQ ID NO: 5) and placed under the control of the SV40e promoter of the pVP16 vector (PT3127-5, Clontech, Palo Alto, Calif.).
CHO cells were transienty transfected with transcription cassettes for GAL4 DBD-CfEcR(DEF) and for VP16AD-MmRXRE controlled by SV40e promoters. Stably transfected cells were selected using Hygromycin. Individually isolated CHO cell clones were transiently transfected with a GAL4 RE-luciferase reporter (pMR-Luc, Stratagene, La Jolla, Calif.). The 13B3 clone was selected using Zeocin.
as §1, §2, §3

[4] = maximum fold induction at any concentration relative to that of GS-E ligand
[5] = maximum fold induction at any concentration relative to maximum fold induction of GS™-E ligand, CHO clone 27-63

SMILES	27-63 Rel Max FI [1, 4]	CC50 [1] [nM]	CC50 [2] [nM]	Z3 Rel Max FI [2]	Fold Induction Average, Z3 Assay (33 μM) ([2]; single dose 33 μM, ligand treated / DMSO treated cells)	Fold Induction Average, 13B3 Assay (33 μM) [3]	EC50 [1]	27-63 Rel Max FI [1, 5]
CCc1c(C(=O)NC2(C(=O)c3cc(C)cc(C)c3)CCCCC2)ccc2c1OCCO2 [Example 80]	0.91	390	740	0.89	–	–	–	–
Cc1cc(C)cc(C(=O)C2(NC(=O)c3ccc4c(c3C)OCO4)CCCCC2)c1 [Example 81]	0.91	3220	3680	0.81	–	–	–	–
Cc1cc(C)cc(C(=O)C2(NC(=O)c3ccc4c(c3)OCCO4)CCCCC2)c1 [Example 82]	0.84	1780	1990	0.79	–	–	–	–
COc1ccccc1C(=O)NC(C)(C)C(=O)c1cc(C)cc(C)c1 [Example 119]	–	–	–	–	1	0	–	–
Cc1cc(C)cc(C(=O)C2(NS(=O)(=O)c3ccc4c(c3)COCO4)CCCCC2)c1 [Example 179]	–	–	–	–	–	–	6.53 µM	0.28
Cc1ccc(S(=O)(=O)NC2(C(=O)c3cc(C)cc(C)c3)CCCC2)cc1 [Example 180]	–	–	–	–	–	–	1.24 µM and 1.8 µM	0.86 and 1.00
